# From BindingDB's records for doi:10.1016/j.bmcl.2020.127533 (Glaxosmithkline, 2020)
# Molecular target: Methionine aminopeptidase 2 (Homo sapiens) (UniProt P50579)
# Assay: Inhibition of MetAP2 (unknown origin)
# Methionine aminopeptidase 2 (Homo sapiens), sequence (P50579 whole entry, looked up): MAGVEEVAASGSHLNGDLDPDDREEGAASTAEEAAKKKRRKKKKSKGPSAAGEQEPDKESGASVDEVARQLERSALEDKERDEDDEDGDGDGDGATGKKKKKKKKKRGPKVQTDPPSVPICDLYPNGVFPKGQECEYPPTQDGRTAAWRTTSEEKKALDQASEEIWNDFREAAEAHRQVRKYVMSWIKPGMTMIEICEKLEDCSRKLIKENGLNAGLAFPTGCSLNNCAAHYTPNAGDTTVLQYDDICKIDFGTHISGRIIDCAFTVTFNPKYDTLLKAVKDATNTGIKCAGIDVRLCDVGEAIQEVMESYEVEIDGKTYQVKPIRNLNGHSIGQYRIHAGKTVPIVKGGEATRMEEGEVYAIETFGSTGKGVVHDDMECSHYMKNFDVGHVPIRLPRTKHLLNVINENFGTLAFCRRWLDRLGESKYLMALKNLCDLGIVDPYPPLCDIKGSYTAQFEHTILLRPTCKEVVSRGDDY
row,IC50 [nM],Structure (SMILES)
1,316,NC(=O)c1[nH]c2ccc(Cl)cc2c1-c1ccccc1
2,1580,CC(=O)c1[nH]c2ccc(Cl)cc2c1-c1ccccc1
3,20000,O=C(O)c1[nH]c2ccc(Cl)cc2c1-c1ccccc1
4,7940,NC(=O)c1[nH]c2c(Cl)cccc2c1-c1ccccc1
5,631,NC(=O)c1[nH]c2ccc(F)cc2c1-c1ccccc1
6,2510,NC(=O)c1[nH]c2ccccc2c1-c1ccccc1
7,6310,NC(=O)c1[nH]c2cnccc2c1-c1ccccc1
8,1260,NC(=O)c1[nH]c2ncc(Cl)cc2c1-c1ccccc1
9,3980,NC(=O)c1[nH]c2ccc(Cl)c(F)c2c1-c1ccccc1
10,63,NC(=O)c1[nH]c2cc(F)c(Cl)cc2c1-c1ccccc1
11,631,NC(=O)c1[nH]c2c(F)cc(Cl)cc2c1-c1ccccc1
12,100,COc1ccccc1-c1c(C(N)=O)[nH]c2ccc(Cl)cc12
13,316,Cc1ccccc1-c1c(C(N)=O)[nH]c2ccc(Cl)cc12
14,398,NC(=O)c1[nH]c2ccc(Cl)cc2c1-c1ccccc1OC(F)(F)F
15,25,CC(C)Oc1ccccc1-c1c(C(N)=O)[nH]c2ccc(Cl)cc12
16,6.3,COc1ccccc1-c1c(C(N)=O)[nH]c2cc(F)c(Cl)cc12
17,5,CC(C)Oc1ccccc1-c1c(C(N)=O)[nH]c2cc(F)c(Cl)cc12
18,398,NC(=O)c1[nH]c2ccc(Cl)cc2c1-c1ccc(Cl)cc1
19,126,COc1ccc(-c2c(C(N)=O)[nH]c3ccc(Cl)cc23)cc1
20,100,CN(C)c1ccc(-c2c(C(N)=O)[nH]c3ccc(Cl)cc23)cc1
21,501,N#Cc1ccc(-c2c(C(N)=O)[nH]c3ccc(Cl)cc23)cc1
22,251,NC(=O)c1[nH]c2ccc(Cl)cc2c1-c1ccc(C(=O)N2CCCC2)cc1
23,50,NC(=O)c1[nH]c2ccc(Cl)cc2c1-c1ccc(N2CCOCC2)cc1
24,25,CN1CCN(c2ccc(-c3c(C(N)=O)[nH]c4ccc(Cl)cc34)cc2)CC1
25,1000,CN(C)Cc1ccc(-c2c(C(N)=O)[nH]c3ccc(Cl)cc23)cc1
26,251,NC(=O)c1[nH]c2ccc(Cl)cc2c1-c1ccc(-c2ccn[nH]2)cc1
27,3.2,CC(C)Oc1cc(N2CCNCC2)ccc1-c1c(C(N)=O)[nH]c2cc(F)c(Cl)cc12
28,2,CC(C)Oc1cc(N2CCNCC2)ccc1-c1c(C(N)=O)[nH]c2cc(F)c(F)cc12
